Data set [1] in a line: Irritation in the MN-treated animal models (data not shown). The format is in vivo. The settings on record: FLU deposition vehicle on MN-treated animal models. The protocol:
(§1) In order to optimize FLU skin concentration and NTX flux, in certain embodiments, four different methods were chosen for FLU deposition. […] Ethanol (200 proof) was chosen for in vivo studies because it is a frequently used topical excipient and most of the 40 μl ethanol used was allowed to evaporate before application of the drug gel. […] The other two formulations tested contained either 70% or 25% PG. […] See Ghosh P. et al., 2013. Development of a codrug approach for sustained delivery across MN treated skin. […] See Milewski M., Stinchcomb A 2011. Vehicle Composition Influence on the MN-Enhanced Transdermal Flux of Naltrexone Hydrochloride. Pharmaceutical Research 28: 124-134. The formulations also contained large amounts of ethanol, a known permeation enhancer, and evaporation of the ethanol from these was not as efficient due to the presence of PG. Solubility of FLU was not an issue with any of the formulations. Therefore, in a preferred embodiment, 40 μl of 1.5% FLU in 200 proof ethanol was chosen as the vehicle for FLU deposition. Ethanol is a well-known chemical enhancer used in the topical/transdermal industry. It acts by replacing the water molecules in the lipid polar head groups as well as the protein regions of the SC, thus enhancing free volume and permeability of molecules across the skin. See Feingold K R 2009. The outer frontier: the importance of lipid metabolism in the skin. […]

Data set [2] in a line: Skin irritation by colorimetry (change in erythema, Δa*). The settings on record: immediately following treatment or following removal of the patches at 7 days; among treatment groups; p>0.05. The format is in vivo, hairless guinea pigs (HGP). The protocol:
Local skin irritation can be one of the major drawbacks of topical/transdermal delivery, so irritation studies were conducted to look at the effect of local FLU treatment of the skin in HGP. The studies were conducted using the same treatment groups as the recovery studies. Colorimeter (Chroma Meter CR-400, Konica, Minolta, Japan) readings were obtained, in triplicate, at each site before and immediately after the treatment. The data were used to record changes in the color of the skin from baseline based on 3 different color axes, the red-green axis (a*), the black-white axis (L*) and the yellow-blue axis (b*). […] The degree of redness of the skin or the change in erythema of the skin was measured by the change in the red green axis (Δa*) values. Skin irritation studies were conducted in triplicate.

For data set [3] the following is noted: humans; cited from earlier work.
Data set [4] in a line: In vitro diffusion studies across MN treated skin (NTX flux, NTX and FLU skin concentration). The format is in vitro ADME, Yucatan miniature pig. The settings on record: p>0.05. The source says: NTX and FLU were quantified using high pressure liquid chromatography (HPLC). The HPLC system consisted of a Waters 717 plus auto-sampler, a Waters 600 quaternary pump, and a Waters 2487 dual wavelength absorbance detector with Waters Empower™ software. A Perkin Elmer Brownlee™ Spheri 5 VL C18 column (5μ, 220×4.6 mm) and a C18 guard column (15×3.2 mm) were used with the UV detector set at a wavelength of 280 nm for NTX and 305 nm for FLU. The mobile phase consisted of 65:35 (v/v) ACN: (0.1% TFA with 0.065% 1-octane sulfonic acid sodium salt, adjusted to pH 3.0 with TEA aqueous phase). Samples were run at a flow rate of 1.5 ml/min. The injection volume used was […] for all samples.
In vitro studies were performed to look at the flux across MN treated skin and the skin concentrations of NTX and FLU in the skin. Full-thickness Yucatan miniature pig skin was used for all in vitro experiments. All pig tissue harvesting experiments were done under IACUC approved protocols at the University of Kentucky. Fresh skin was cleaned to remove excess subcutaneous fat, dermatomed and stored at −20° C. Skin was thawed and cut into small square pieces on the day of the diffusion experiment. The thickness was measured for each individual piece of skin and the average thickness of all treatment groups was maintained between 1.4-1.8 mm. Skin was next treated with a 5 MN in-plane array, 10 times in one direction and 10 times in a mutually perpendicular direction to generate a total of 100 MN insertions within the active treatment area of 0.95 cm^2. Five treatment groups were used based on the 4 different vehicles used for FLU and a control for NTX only; all studies were done in triplicate. […] All samples were analyzed using HPLC. The steady state flux of NTX was calculated using the steady state portion of the cumulative amount permeated vs. time plot. The skin concentrations of both drugs were also determined at the end of the study by extracting the drug overnight into 10 mL of ACN, and injecting the extracted sample onto the HPLC column after appropriate dilutions. […]

A short description of data set [5]: Pharmacokinetic studies of NTX after MN treatment with or without FLU. The settings on record: for AUC / Cmax / Tmax: hairless, guinea pig, plasma.
The conditions of data set [6]: cited from earlier work.
Data set [7] is described as follows: Solubility of FLU in the deposition formulations. The format is physicochemical. Particulars: in the four deposition formulations (ethanol, acetone, PG-ethanol, PG-ethanol-water). The method, then:
as §1

Data set [8] can be described thus: Reversibility/recovery of pores by transepidermal water loss (TEWL). The format is in vivo, hairless guinea pigs (HGP). The settings on record: after removal of occlusion at 7 days; compared among the 5 treatment sites; p>0.05.
Source text: The reversibility/recovery of the pores following removal of occlusion was studied using transepidermal water loss (TEWL) in a HGP model. Five different sites were chosen on the dorsal region of an animal. […] All sites were marked and cleaned on the day of the treatment. […] The concentration and amount of NTX gel and FLU were consistent with the PK studies. A placebo gel was used for site 3 and site 4. The placebo gel was similar in composition to the NTX gel with 10% PG, 1% benzyl alcohol and 3% HEC as the gelling agent. […] All sites were occluded using a transdermal patch (148) secured in place with Bioclusive™ tape. […] All experiments were conducted at least in triplicate. Recovery of the skin, (i.e., regeneration of the barrier function of the SC) was studied using TEWL. These studies were carried out to look at the effect of the local concentration of FLU on the recovery/healing of the skin following removal of occlusion.
For data set [9] the following is noted: using MN, humans, no pore lifetime enhancer; cited from earlier work.
The conditions of data set [10]: daily/alternate day topical application; compared to 2-3 days without pore lifetime enhancement agent; cited from earlier work.
For data set [11] the following is noted: established positive control treatment in HGP, 0.5% solution; cited from earlier work.

Structures can show the parent of a compound that is named as a salt.

Turning to `CC(C)=O` [Acetone, acetone], the irritation result in data set [1] is on record as “caused irritation”.

Regarding `CC(C)n1c(/C=C/C(O)CC(O)CC(=O)O)c(-c2ccc(F)cc2)c2ccccc21` (stereo not shown) [FLU, fluvastatin sodium], the “change in erythema (Δa*)” value in data set [2] is reported as “no significant differences”. The oral bioavailability in data set [3] was 9-50%. Further, the “concentration of FLU in the skin” value in data set [4] (irrespective of the method of FLU deposition, 1.5% FLU, 40 μl) was “no significant difference”. In addition, the “enhancement of drug delivery (window)” value in [5] (NTX delivery across MN-treated skin with addition of FLU) worked out at 7 days. In addition, in [6], the log P – broadly, the decadic logarithm of the partition coefficient of the neutral form, usually between octanol and water – is 4.6; the pKa (commonly the pH at which an ionisable group is half protonated) is on record as 4.27. In [7], the solubility entry was “not an issue”. In addition, the “recovery of the skin (TEWL enhancement ratio over baseline)” value in data set [8] is reported as “no significant differences”.

For the molecule `O=C1CC[C@@]2(O)[C@H]3Cc4ccc(O)c5c4[C@@]2(CCN3CC2CC2)[C@H]1O5` [NTX, Naltrexone HCL], in [4] (NTX flux compared among the 5 treatment groups (4 FLU vehicles, NTX only control)), the “flux across MN treated skin” value was “no significant difference”. Moreover, the “concentration of NTX in the skin” value in data set [4] (irrespective of the method of FLU deposition) is given as “no significant difference”. Also, the plasma concentrations entry is “above 2 ng/mL” in data set [5] (NTX, FLU treatment group, throughout the range of the study (168 h)) and “below 2 ng/mL” in data set [5] (NTX, vehicle control (ethanol), beyond 144 h). In addition, the “lag time with MN enhanced delivery” value in data set [5] (NTX, any of the three groups) was “no lag time observed”. Also, in [5] (NTX, patch system on MN treated skin), the “time after treatment at which drug was quantified in plasma” value was at most 15 min. In addition, the “time for which detectable levels of NTX were present in the plasma” value in [5] (all study groups, HGP) is listed as 72 h. For the same molecule, the “NTX concentration in the plasma” value in [5] (ethanol treated group, at 7 days) was below 2 ng/mL. Further, the AUC (in general, concentration integrated over time) in [5] (topical or ocular, 200 μL NTX gel, NTX in plasma, HGP, MN control: MN + NTX gel) stood at 614 ± 213 ng·h/mL; in data set [5] (topical or ocular, NTX in plasma, HGP, Treatment group: MN + NTX gel + FLU in ethanol) it was 1410 ± 1040 ng·h/mL; in data set [5] (topical or ocular, NTX in plasma, HGP, Vehicle control: MN + NTX gel + ethanol), 1700 ± 1670 ng·h/mL. Also, the Cmax (usually the highest concentration seen after dosing) in data set [5] (topical or ocular, 200 μL NTX gel, NTX in plasma, HGP, MN control: MN + 200 μL NTX gel, n=3) turned out to be 39.4 ± 11.5 ng/mL; in data set [5] (topical or ocular, NTX in plasma, HGP, Treatment group: MN + 300 μL NTX gel + 40 μL FLU in ethanol (200 proof), n=3) it was 38.1 ± 19.7 ng/mL; in [5] (topical or ocular, NTX in plasma, HGP, Vehicle control: MN + 300 μL NTX gel + 40 μL ethanol (200 proof), n=4), 39.3 ± 19.2 ng/mL. Further, the Tmax – broadly, the time at which the peak concentration occurs – in data set [5] (topical or ocular, 200 μL NTX gel, Tmax, NTX in plasma, HGP, MN control: MN + NTX gel) was 2.8 ± 2 h; in [5] (topical or ocular, Tmax, NTX in plasma, HGP, Treatment group: MN + NTX gel + FLU in ethanol), 2.7 ± 3.8 h; in [5] (topical or ocular, Tmax, NTX in plasma, HGP, Vehicle control: MN + NTX gel + ethanol) it was 1.4 ± 1.7 h; in data set [5] (topical, Tmax or time to maximum plasma concentration, NTX, all studies) it was 0.25 to 4 h. For the same molecule, the NTX levels result in data set [5] (vehicle control group, until 144 hours) is recorded as “above 2 ng/ml”. Besides, the “duration of delivery at therapeutic levels” value in [9] was 2 to 3 days.

Regarding `O=C(O)Cc1ccccc1Nc1c(Cl)cccc1Cl` [diclofenac, diclofenac sodium], the “period of drug delivery following MN treatment” value in data set [10] is 7 days.

Turning to `CCCCCCCCCCCCOS(=O)(=O)[O-].[Na+]` [sodium lauryl sulfate], the “Δa* value” in data set [11] is on record as 12.3.

Source of the values: patent US10022366B2, “Extending and maintaining micropore viability of microneedle treated skin with lipid biosynthesis inhibitors for sustained drug delivery” (University of Maryland, Baltimore, priority 2013, dated 2018).
